Measurements published in PMC5099578, “A structural and functional study on the 2-C-methyl-D-erythritol-4-phosphate cytidyltransferase (IspD) from Bacillus subtilis” (Scientific Reports, 2016).

Target: T1, BsIspD (Bacillus subtilis, UniProt Q06755)
T1 construct: gene ispD; full length (699 bp gene, 232 residues built); pGEX-6P-1, expressed in E. coli, GST tag cut with PreScission protease; homodimer
Assay: X-ray crystal structure of the complex, […] Å
Assay type: binding
Details: co-crystallised with 10 mM CTP and 10 mM MgCl2; active site, one CTP and one Mg2+ in molecule D only

T1 sequence (Q06755 whole entry): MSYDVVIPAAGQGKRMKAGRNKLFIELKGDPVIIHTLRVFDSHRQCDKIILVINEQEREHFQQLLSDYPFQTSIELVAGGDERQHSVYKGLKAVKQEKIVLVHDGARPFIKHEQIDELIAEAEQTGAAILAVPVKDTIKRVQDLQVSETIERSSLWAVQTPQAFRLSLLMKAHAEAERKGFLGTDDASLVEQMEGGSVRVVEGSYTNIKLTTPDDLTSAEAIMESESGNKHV

Nc1ccn([C@@H]2O[C@H](COP(=O)(O)OP(=O)(O)OP(=O)(O)O)[C@@H](O)[C@H]2O)c(=O)n1 [CTP]
X-ray crystal structure of the complex, 1.90 Å: One CTP molecule and one magnesium ion were observed binding to the molecule D
